Measured values taken from patent publication US20130337564A1, “Treatment of Pluripotent Cells” (Janssen Biotech, Inc., priority 2012, published 2013).

Test system: human embryonic stem cell line H1
Assay: Dose titration secondary assay: cell number, H1
Format: cell-based
Conditions: Homo sapiens, Embryonic stem cell, positive control (Wnt3a/Activin A) normalized to 1.000; for activity at 0.156 µM: Conc 0.156 μM; for activity at 0.313 µM: Conc 0.313 μM; for activity at 0.625 µM: Conc 0.625 μM; for activity at 1.25 µM: Conc 1.25 μM; for activity at 2.5 µM: Conc 2.5 μM; for activity at 5 µM: Conc 5 μM; for activity at 10 µM: Conc 10 μM
Description: It was important to confirm the activity of hits identified from primary screening and further analyze the range of activity by dose titration. New samples of a selective subset of primary screening hits were obtained as dry powders, solubilized to make fresh stock reagents, and diluted into secondary confirmation assays to evaluate effects on human embryonic stem cells.
Culture of two human embryonic stem cells (H1 and H9) was conducted as described in Example 1. Colonies of cells were maintained in an undifferentiated, pluripotent state on Matrigel™ ([…]) coated polystyrene plastic, using a 1:30 dilution of Matrigel™ in DMEM:F12 to coat the surface. Cells were split by enzymatic passage every four days on average. Passage was performed by exposing cell monolayers to a solution of collagenase (1 mg/ml; Sigma-Aldrich) for 10 to 60 minutes at 37° C. followed by gentle scraping with a pipette tip to recover cell clusters. Clusters were allowed to sediment by gravity, then washed to remove residual collagenase. Cell clusters were split at a 1:3 ratio for maintenance culture or a 1:1 ratio for subsequent assay. The human embryonic stem cell lines were maintained at less than passage 50 and routinely evaluated for normal karyotypic phenotype and absence of mycoplasma contamination.
Cell clusters of the H1 or H9 human embryonic stem cell lines used in the assay were evenly resuspended in culture medium and plated onto Matrigel™-coated 96-well Packard VIEWPLATES (PerkinElmer) in volumes of 100 μl/well. MEF conditioned medium supplemented with 8 ng/ml bFGF was used for initial plating and expansion. Daily feeding was conducted by aspirating spent culture medium from each well and replacing with an equal volume of fresh medium. Cultures were allowed to expand one to three days after plating prior to initiating assay. Plates were maintained at 37° C., 5% CO2 in a humidified box for the duration of assay.
A subset of hits resulting from primary screening was used for follow-up study and subsequent secondary assays. Twenty compounds available as dry powders were solubilized as 10 mM stocks in DMSO and stored dessicated at […] until use Immediately prior to assay, compound stocks were diluted 1:1000 to make 10 μM test compound in DMEM:F12 base medium (Invitrogen) supplemented with 0.5% FCS (HyClone) and 100 ng/ml Activin A (R&D Biosystems). This was further diluted two-fold in series to make a seven point dilution curve for each compound, also in DMEM:F12 base medium with 0.5% FCS and 100 ng/ml Activin A.
Assay was initiated by aspirating culture medium from cell monolayers in each well followed by three washes in PBS to remove residual growth factors and serum. Test volumes of 100 μl per well were added back containing medium with 0.5% FCS and different concentrations of inhibitor compounds with 100 ng/ml Activin A, without Wnt3a. Positive control wells contained the same base medium with 0.5% FCS and with 20 ng/ml Wnt3a (R&D Biosystems) in the absence of test compound. Negative control wells contained the same base medium with 0.5% FCS, in the absence of Activin A, Wnt3a, or test compound. Assay wells were aspirated and fed again with identical concentrations of test compound or control solutions on day 2 of assay. On days 3 and 4, all assay wells were aspirated and fed with DMEM:F12 supplemented with 2% FCS and 100 ng/ml Activin A in the absence of both test compound or Wnt3a. Parallel negative control wells were maintained on days 3 and 4 in DMEM:F12 base medium with 2% FCS.
At the end of culture, cells in 96-well plates were washed twice with PBS then fixed with 4% paraformaldehyde at room temperature for 20 minutes, washed three times more with PBS, and then permeabilized with 0.5% Triton X-100 for 20 minutes at room temperature. After fixing and permeabilizing, cells were washed again three times with PBS and then blocked with 4% chicken serum (Invitrogen) in PBS for 30 minutes at room temperature. […]

O=C1NC(=O)C(c2cn(CCCO)c3ncccc23)=C1c1cnccn1 [Compound 47, 3-[1-(3-Hydroxypropyl)-1H-pyrrolo[2,3-b]pyridin-3-yl]-4-pyrazin-2-yl-1H-pyrrole-2,5-dione]
activity at 0.156 µM: 71.2%
activity at 0.313 µM: 74.2%
activity at 0.625 µM: 83.2%
activity at 1.25 µM: 101%
activity at 2.5 µM: 93.2%
activity at 5 µM: 110%
activity at 10 µM: 105%

O=C1NC(=O)C(c2nn(CCCO)c3ccccc23)=C1c1cn(-c2cccnc2)c2ccc(Cl)cc12 [Compound 52, 3-(5-Chloro-1-pyridin-3-yl-1H-indol-3-yl)-4-[1-(3-hydroxypropyl)-1H-indazol-3-yl]-1H-pyrrole-2,5-dione]
activity at 0.156 µM: 82.6%
activity at 0.313 µM: 103%
activity at 0.625 µM: 130%
activity at 1.25 µM: 145%
activity at 2.5 µM: 110%
activity at 5 µM: 2.4%
activity at 10 µM: 0%

CN(C)CCCn1c2c(c3ccccc31)C1=C(C(=O)NC1=O)N(c1cccc(Cl)c1)C2 [Compound 101, 4-(3-Chlorophenyl)-6-[3-(dimethylamino)propyl]-5,6-dihydropyrrolo[3′,4′:5,6]pyrido[3,4-b]indole-1,3(2H,4H)-dione]
activity at 0.156 µM: 81.2%
activity at 0.313 µM: 61.7%
activity at 0.625 µM: 69.9%
activity at 1.25 µM: 116%
activity at 2.5 µM: 100%
activity at 5 µM: 76.8%
activity at 10 µM: 49.6%

O=C1NC(=O)C(c2cn(CCOCCOCCO)c3ccccc23)=C1c1cn(CCO)c2ccccc12 [Compound 110, 3-[1-(2-Hydroxyethyl)-1H-indol-3-yl]-4-{1-[2-({2-[(2-hydroxyethyl)oxy]ethyl}oxy)ethyl]-1H-indol-3-yl}-1H-pyrrole-2,5-dione]
activity at 0.156 µM: 97.4%
activity at 0.313 µM: 116%
activity at 0.625 µM: 119%
activity at 1.25 µM: 111%
activity at 2.5 µM: 117%
activity at 5 µM: 53%
activity at 10 µM: 12.9%

O=C1NC(=O)C(c2cn(CCOCCOCCNC3CCCc4ccccc43)c3ccccc23)=C1c1cn(CCNC2CCCc3ccccc32)c2ccccc12 (centres unmarked) [Compound 144, 3-{1-[2-(1,2,3,4-Tetrahydronaphthalen-1-ylamino)ethyl]-1H-indol-3-yl}-4-(1-{2-[(2-{[2-(1,2,3,4-tetrahydronaphthalen-1-ylamino)ethyl]oxy}ethyl)oxy]ethyl}-1H-indol-3-yl)-1H-pyrrole-2,5-dione]
activity at 0.156 µM: 59.4%
activity at 0.313 µM: 73.4%
activity at 0.625 µM: 89.5%
activity at 1.25 µM: 55.2%
activity at 2.5 µM: 19.2%
activity at 5 µM: 0%
activity at 10 µM: 0%

CN(C)c1cccc(-n2cc(C3=C(c4nn(CCO)c5ccccc45)C(=O)NC3=O)c3ccccc32)c1 [Compound 145, 3-{1-[3-(Dimethylamino)phenyl]-1H-indol-3-yl}-4-[1-(2-hydroxyethyl)-1H-indazol-3-yl]-1H-pyrrole-2,5-dione]
activity at 0.156 µM: 46.9%
activity at 0.313 µM: 66.5%
activity at 0.625 µM: 71.3%
activity at 1.25 µM: 128%
activity at 2.5 µM: 135%
activity at 5 µM: 33.9%
activity at 10 µM: 2.1%

CN(C)c1ccc(-n2cc(C3=C(c4nn(CCO)c5ccccc45)C(=O)NC3=O)c3cc(Cl)ccc32)cn1 [Compound 148, 3-{5-Chloro-1-[6-(dimethylamino)pyridin-3-yl]-1H-indol-3-yl}-4-[1-(2-hydroxyethyl)-1H-indazol-3-yl]-1H-pyrrole-2,5-dione]
activity at 0.156 µM: 121%
activity at 0.313 µM: 121%
activity at 0.625 µM: 136%
activity at 1.25 µM: 165%
activity at 2.5 µM: 172%
activity at 5 µM: 101%
activity at 10 µM: 0.2%

COC(=O)c1cncc(-n2cc(C3=C(c4nn(CCO)c5ccccc45)C(=O)NC3=O)c3cc(Cl)ccc32)c1 [Compound 150, Methyl 5-(5-chloro-3-{4-[1-(2-hydroxyethyl)-1H-indazol-3-yl]-2,5-dioxo-2,5-dihydro-1H-pyrrol-3-yl}-1H-indol-1-yl)pyridine-3-carboxylate]
activity at 0.156 µM: 104%
activity at 0.313 µM: 124%
activity at 0.625 µM: 102%
activity at 1.25 µM: 121%
activity at 2.5 µM: 129%
activity at 5 µM: 116%
activity at 10 µM: 5.2%

OCCC#Cc1nc(-c2ccc(F)cc2)c(-c2ccncc2)n1CCCc1ccccc1 [Compound 158, 4-[4-(4-Fluorophenyl)-1-(3-phenylpropyl)-5-pyridin-4-yl-1H-imidazol-2-yl]but-3-yn-1-ol]
activity at 0.156 µM: 110%
activity at 0.313 µM: 122%
activity at 0.625 µM: 123%
activity at 1.25 µM: 116%
activity at 2.5 µM: 102%
activity at 5 µM: 90.5%
activity at 10 µM: 5.3%

CN(CCO)CCCn1nc(C2=C(c3cn(-c4cccnc4)c4ccccc34)C(=O)NC2=O)c2ccccc21 [Compound 198, 3-(1-{3-[(2-Hydroxyethyl)(methyl)amino]propyl}-1H-indazol-3-yl)-4-(1-pyridin-3-yl-1H-indol-3-yl)-1H-pyrrole-2,5-dione]
activity at 0.156 µM: 82.2%
activity at 0.313 µM: 75.4%
activity at 0.625 µM: 74.2%
activity at 1.25 µM: 89.9%
activity at 2.5 µM: 103%
activity at 5 µM: 106%
activity at 10 µM: 101%

O=C1NC(=O)C(c2cn(-c3cccnc3)c3ccccc23)=C1c1cn(CCO)c2ccccc12 [Compound 206, 3-[1-(2-Hydroxyethyl)-1H-indol-3-yl]-4-(1-pyridin-3-yl-1H-indol-3-yl)-1H-pyrrole-2,5-dione]
activity at 0.156 µM: 80.4%
activity at 0.313 µM: 93.1%
activity at 0.625 µM: 109%
activity at 1.25 µM: 112%
activity at 2.5 µM: 102%
activity at 5 µM: 116%
activity at 10 µM: 3.9%

Cc1c[nH]c(-c2cnc(NCCNc3ccc(C#N)cn3)nc2-c2ccc(Cl)cc2Cl)n1 [Compound 221, 6-[(2-{[4-(2,4-Dichlorophenyl)-5-(4-methyl-1H-imidazol-2-yl)pyrimidin-2-yl]amino}ethyl)amino]pyridine-3-carbonitrile]
activity at 0.156 µM: 108%
activity at 0.313 µM: 113%
activity at 0.625 µM: 111%
activity at 1.25 µM: 112%
activity at 2.5 µM: 89.6%
activity at 5 µM: 88.9%
activity at 10 µM: 19.3%

CC(C)(O)CCn1nc(C2=C(c3cn(-c4cccnc4)c4ccccc34)C(=O)NC2=O)c2ccccc21 [Compound 223, 3-[1-(3-Hydroxy-3-methylbutyl)-1H-indazol-3-yl]-4-(1-pyridin-3-yl-1H-indol-3-yl)-1H-pyrrole-2,5-dione]
activity at 0.156 µM: 77.6%
activity at 0.313 µM: 102%
activity at 0.625 µM: 103%
activity at 1.25 µM: 116%
activity at 2.5 µM: 132%
activity at 5 µM: 135%
activity at 10 µM: 128%

O=C1NC(=O)C(c2nn(CCO)c3ccccc23)=C1c1cn(-c2cncnc2)c2ccccc12 [Compound 226, 3-[1-(2-Hydroxyethyl)-1H-indazol-3-yl]-4-(1-pyrimidin-5-yl-1H-indol-3-yl)-1H-pyrrole-2,5-dione]
activity at 0.156 µM: 77.4%
activity at 0.313 µM: 78.5%
activity at 0.625 µM: 80.5%
activity at 1.25 µM: 73.9%
activity at 2.5 µM: 64%
activity at 5 µM: 45.8%
activity at 10 µM: 29%
